This note sets out measurements from a melting point compilation (Tetko et al.; mined from patent text by program, amines drawn as free bases though some values may be those of a salt).

By melting point is commonly meant the temperature of the solid-liquid transition.

Regarding `CCCN(CCCCNc1ncc(CC2CCCCC2)c(=O)[nH]1)c1ccccn1`, the melting point lay in the range of 62 to 64 °C.

In turn, `CC(C)C1(C)N=C(c2nc3ccc(OC(F)F)cc3cc2C(=O)O)NC1=O` (configuration not stated) yielded a melting point of 208 to 209 °C.

With `CCOC(=O)c1ncn2c3ccccc3c(=O)n(C)c12`, the melting point fell in the range of 211 to 212 °C.

The compound `Cc1nc(Nc2ccc(F)c(Cl)c2)c2nc(N3CCC(N)CC3)ncc2n1` registered a melting point of 156 to 163 °C.

The compound `C=CCN1C(=O)C(F)N=C(c2ccccc2)c2cc(Cl)ccc21` (configuration not stated) had a melting point of 138 to 140 °C.

In turn, `O=C(NC12CC3CC(CC1C3)C2)c1ccccc1C(c1ccc(O)cc1)c1ccc(O)cc1` came in with a melting point of 219 to 224 °C.

The compound `COc1cc2c(cc1OC)CCCC(C(=O)N1CCN(Cc3cc(OC)c(OC)c(OC)c3)CC1COC(C)=O)=C2` (configuration not stated) came in with a melting point of 135 to 139 °C.

Regarding `O=CN(O)C(CCO)CS(=O)(=O)c1ccc(-c2ccc(F)cc2)cc1` (configuration not stated), the melting point lay within 160 to 162 °C.

On to `Cn1ccc(-c2ccc3c(ccn3-c3ccc(F)cc3)c2)n1`, for which the melting point fell in the range of 123 to 125 °C.

Compound `COc1ccc(C(C#N)=C(C)C)cc1OC` returned a melting point of 93 to 95 °C.

`COc1cc(OC)c2c(=O)[nH]c(-c3ccc4[nH]c(CCO)cc4c3)nc2c1` yielded a melting point of 237 to 238 °C.

On to `COc1ccc2c3c(c(=O)oc2c1)CN(Cc1ccccc1)CC3`, for which the melting point is 118 to 120 °C.

As to `Cc1nnc2n1-c1sc3c(c1C(c1ccccc1Cl)=NC2)CCN(C(=S)Nc1ccccc1C(F)(F)F)C3`, the melting point was in the range of 190 to 192 °C.

With `CCC1(CCCN2CCN(c3cccc(Cl)c3)CC2)C(=O)Nc2ccccc21` (configuration not stated), the melting point lay within 119 to 120 °C.

Consider `Fc1cc(CC2(Cc3ccncc3)c3ccccc3Oc3ncccc32)ccn1` (configuration not stated), for which the melting point was 206 to 208 °C.

`CCN1CCN(c2cccc(Nc3nc4c(-c5ccc(P(C)(C)=O)cc5)cccn4n3)c2)C(=O)C1` showed a melting point of 205 to 207 °C.

Turning to `CN(c1cccc2c(Cl)c(-c3nccs3)[nH]c12)S(=O)(=O)c1cccs1`, the melting point lay within 222 to 223 °C.

With `N#CCCc1c(SC(F)(F)F)c(C#N)c(Cl)n1-c1c(Cl)cc(C(F)(F)F)cc1Cl`, the melting point is 150 °C.

The compound `O=C1C(=Cc2ccc(Br)cc2)CCc2cc(OCCc3c[nH]cn3)ccc21` displayed a melting point of 176 to 178 °C.

In turn, `CCCCCCCCCCC(O)CNCCCCCCNCC(O)CCCCCCCCCC` (configuration not stated) gave a melting point of 124 to 128 °C.

For `O=C(Nc1ccccc1N1CCc2ccccc21)c1ccncc1`, the melting point fell in the range of 120 to 121 °C.

`Cc1ncc([N+](=O)[O-])n1CCN1C(=O)NC2(C1=O)C1CC3CC(C1)CC2C3` (configuration not stated) yielded a melting point of 276 to 280 °C.

On to `COC(=O)c1ccc(CN2CCc3ccc(S(=O)(=O)Nc4cccc(Cl)c4)cc3C2)o1`, for which the melting point was 167 to 168 °C.

Compound `Cn1nc(-c2ncc(Cl)cc2F)c(Cl)c1C(F)(F)F` returned a melting point of 76 to 78 °C.

`COc1cccc(NC(=O)NC2CC(c3ccccc3)CC(Cc3ccccc3)N(CC(=O)OC(C)(C)C)C2=O)c1` (configuration not stated) displayed a melting point of 95 to 105 °C.

In the case of `O=C(CF)CCCN1C(=O)c2ccccc2C1=O`, the melting point came out at 92 °C.

For `O=C(Nc1cccc(S(=O)(=O)N(CCO)CCO)c1)c1cnn2c(C(F)F)cc(-c3ccc(C(F)(F)F)cc3)nc12`, the melting point is 208 °C.

Compound `COc1cc(F)c(C(=O)Cc2c(Cl)cncc2Cl)cc1OC1CCCC1` gave a melting point of 116 °C.

The compound `NS(=O)(=O)Cc1cccc(NC(=O)c2cnn3c(C(F)F)cc(-c4ccc(C(F)(F)F)cc4)nc23)c1` returned a melting point of 280 °C.

Compound `COC(=O)NCC1CN(c2ccc(-n3cnc(Cn4ccnc4)c3)c(F)c2)C(=O)O1` (configuration not stated) had a melting point of 78 to 80 °C.

In turn, `CC(C)(C(N)=O)c1cn2nc(Cl)ccc2n1` displayed a melting point of 194 to 195 °C.

As to `CN(Cc1ccccc1)Cc1nc(-c2ccc(-c3ccccc3)cc2)c[nH]1`, the melting point was in the range of 106 to 108 °C.

In the case of `O=C(O)Cn1c(=O)n(CCCCN2CCC(OC(c3ccccc3)c3ccccc3)CC2)c(=O)c2ccccc21`, the melting point is 153 to 155 °C.

With `N#Cc1ccc2[nH]c3ccccc3c2c1`, the melting point was in the range of 180 to 181 °C.

Regarding `CC(=O)c1ccc(S(=O)(=O)n2c(CCC(=O)O)cc3cc(Cl)ccc32)cc1`, the melting point is 159 to 161 °C.

With `Cc1nc(N)c2nc(-c3ccccc3)cc-2[nH]1`, the melting point is greater than 280 °C.

As to `COC(=O)Cn1c(=O)n(C)c(=O)n(-c2cc(Oc3c(Cl)ccc(C)c3Cl)ccc2[N+](=O)[O-])c1=O`, the melting point lay in the range of 200 to 202 °C.

`C/C(=C\c1ccc(C=O)cc1)c1ccc2c(c1)C(C)(C)CCO2`: the melting point is 102 to 104 °C.

Turning to `Cc1ccc(S(=O)(=O)N2CCCN(c3cccc(C)c3C)CC2)cc1`, the melting point amounted to 86.2 °C.

Compound `O=S(=O)(c1ccc(Oc2cccc(C(F)(F)F)c2)cc1)c1ccc(Oc2cccc(C(F)(F)F)c2)cc1` registered a melting point of 96.5 to 97.5 °C.

As for `CN1C(=O)C2C3C=CC(C3)C2(c2ccc(N)cc2)C1=O` (configuration not stated), the melting point was 129 to 131 °C.

`COC(=O)c1ccc(OCc2ccc(Cl)cc2)cc1O` yielded a melting point of 119 to 121 °C.

`CC1(C)C=C(c2ccccn2)c2cc(C#N)ccc2OC1`: the melting point fell in the range of 155 to 157 °C.

Consider `CCC1=NNC(C)=C(C(=O)OC(C)C)C1c1cccc([N+](=O)[O-])c1` (configuration not stated), for which the melting point was determined as 108 °C.

`CCCc1c(OCCCCCC(=O)NCCCCc2ccccn2)ccc(C(C)=O)c1O`: the melting point was in the range of 63 to 66 °C.

Compound `COc1ccc(-c2cc3c(C#N)c(OC)ccc3o2)cc1` gave a melting point of 120 to 122 °C.

In turn, `CC(=O)N[C@@H](C)COC1CCN(c2nc3cc(OCC4CC4)ccc3s2)CC1` gave a melting point of 115 to 116 °C.

The compound `CCCCc1nn(-c2ccccc2C(F)(F)F)c(=O)n1Cc1ccc(-c2ccccc2S(=O)(=O)NS(=O)(=O)C(F)(F)F)cc1` came in with a melting point of 132 to 134 °C.

Compound `CCOC(=O)c1cnc2n(c1=O)C(C)CCC2=NNC(=O)c1ccccc1` (configuration not stated) yielded a melting point of 209 to 210 °C.

Compound `CN(C)C=CC(=O)C(=O)c1ccccc1` came in with a melting point of 88 °C.

On to `CCOC(=O)COc1c(CC=C(C)C)c(OC)cc(OC)c1C(=O)C=Cc1ccc(OC)cc1`, for which the melting point was 85 to 86 °C.

For the compound `CN(C)CCNC(=O)c1cn(C)c(=O)c2cc3cccnc3nc12`, the melting point lay in the range of 218 to 221 °C.

Turning to `CN1CCC(O)(c2cccn2Cc2ccccc2F)CC1`, the melting point lay in the range of 164 to 165 °C.

`O=C1c2ccccc2C(=O)N1CC1CC1c1cccc2nscc12` (configuration not stated) yielded a melting point of 148 to 151 °C.

In the case of `CCC1(O)OCc2c1ccnc2OC` (configuration not stated), the melting point came to 145 °C.

As for `ClC1=NC(Cl)(Cl)N=C1Cl`, the melting point lay in the range of 85 to 87 °C.

Turning to `CCC(C)c1ccc(OC(C)=O)c(C2(OC(C)=O)C(=O)c3ccccc3C2=O)c1` (configuration not stated), the melting point lay within 118 to 120 °C.

`Fc1ccc2[nH]cc(CC3C=CCN(Cc4ccccc4)C3)c2c1` (configuration not stated) returned a melting point of 133 to 136 °C.

`CN1CCC(OC2c3ccccc3CC(C)(C)n3cc(-c4ccccc4)nc32)CC1` (configuration not stated) returned a melting point of 85 °C.

With `CCOc1cc(C2=NN(Cc3ccc(N)cc3)C(=O)CC2)ccc1OC`, the melting point is 120 °C.

The compound `NCC(=O)Nc1ccc(S(=O)(=O)c2cccc(Cl)c2)cc1` showed a melting point of 195 to 196 °C.

On to `COc1ccc2cc([C@H](C)C(=O)OC[C@@H]3NC(=O)[C@@H](C(C)(C)S)NC3=O)ccc2c1`, for which the melting point was greater than 180 °C.

Compound `C=CCOCc1nc(C(C)(C)C)nn1-c1c(Cl)cc(Cl)cc1Cl` registered a melting point of 34 to 37 °C.

The compound `Cc1noc(C)c1-c1cn(Cc2ccccc2)c(=O)c2ccccc12` returned a melting point of 139 to 141 °C.

As to `CN(Cc1ccccc1)C(N)=NC#N`, the melting point was 102 to 105 °C.

`CS(=O)(=O)N1CCN(C(=O)Cl)C1=O` showed a melting point of 178 °C.

Turning to `O=C(NC(Cc1ccccc1Cl)C(=O)N1CCSC1)c1cc2cc(Cl)ccc2[nH]1` (configuration not stated), the melting point was in the range of 214 to 216 °C.

`Cn1nc(C(F)(F)F)c(CS(=O)(=O)C2=NOC(C)(C)C2)c1C#N` gave a melting point of 105 to 108 °C.

The compound `COc1ccc(C(=O)c2cc([N+](=O)[O-])ccc2Cl)cc1OC` registered a melting point of 138 °C.

Regarding `COc1ccc(-c2ccc(-c3ccc(C)cc3)s2)s1`, the melting point was in the range of 108 to 111 °C.

Consider `CCCN(CCCc1c[nH]c2ccc(F)cc12)C1COc2c(ccc3ncccc23)C1` (configuration not stated), for which the melting point amounted to 134 °C.

`CCOC(=O)C(=O)c1cn(CCCNC(=O)OC(C)(C)C)c2ccccc12` showed a melting point of 89 to 90 °C.

`CCNc1nc2c(ccc3[nH]c4cnc(C(=O)OC(C)C)c(CC)c4c32)s1`: the melting point fell in the range of 275 to 276 °C.

In the case of `CCCC(=O)OCC(=O)C12OCOC1CC1C3CCC4=CC(=O)C=CC4(C)C3C(O)CC12C` (configuration not stated), the melting point was in the range of 140 to 141 °C.

The compound `CCC(C(=O)N(C)C)n1cc(Br)cn1` (configuration not stated) returned a melting point of 97 to 100 °C.

For `Clc1ccc(C2(CBr)OCC(c3ccc(Cl)cc3Cl)O2)cc1` (configuration not stated), the melting point turned out to be 82.7 °C.

`Nc1ccc([N+](=O)[O-])cc1I`: the melting point was 90 to 95 °C.

For the compound `CCOC(=O)c1c(N2CCN(C(=O)c3cccs3)CC2)c2cc(Cl)cnc2n(Cc2cccc(F)c2)c1=O`, the melting point amounted to 186 °C.

`CC(C)c1ccccc1S(=O)(=O)c1ccc(O)cc1` showed a melting point of 160 °C.

For the compound `CC(=O)C(Cl)=CSC(C)(C)C`, the melting point is 73 °C.

`Oc1nnc(-c2ccc(CN3CCCCCC3)s2)o1` came in with a melting point of 117 to 119 °C.

The compound `N#Cc1ccc(C(=O)c2ccc(OC3OCC(O)C(O)C3O)cc2)cc1` (configuration not stated) showed a melting point of 189 °C.

The compound `CN1CCC(OC2c3cccc(-c4ccc(F)cc4)c3CCn3cc(-c4ccccc4)nc32)CC1` (configuration not stated) displayed a melting point of 95 °C.

In the case of `O=C(CS(=O)CCNC(=O)c1ccco1)NCCCOc1cccc(CN2CCCCC2)c1` (configuration not stated), the melting point was in the range of 101 to 102 °C.

`CN1CCC(c2c[nH]c3ccc(CCS(=O)(=O)N(C)C)cc23)CC1` gave a melting point of 170 to 172 °C.

`CCOCN1C(C)=C(C(=O)O)C(c2cccc([N+](=O)[O-])c2)C(C(=O)O)=C1C` gave a melting point of 175 to 176 °C.

On to `CC(=O)Nc1ccc(C(=O)c2cccnc2)cc1`, for which the melting point was 215 °C.
